Reference: patent publication US9457033B2, “Steroid alkaloids and uses thereof as antimicrobial agents against electron transport-deficient microbes and as potentiators for antimicrobial agents against pathogenic bacteria” (priority 2011, dated 2016)

Key:
[1] = system: S. epidermidis ATCC 12228; test: MIC, microdilution, with or without tomatidine; conditions: S. epidermidis ATCC 12228
[2] = system: S. aureus ATCC 43300; test: MIC, microdilution in CAMHB 24 h; type: cell-based, Staphylococcus aureus; conditions: ATCC 43300
[3] = system: S. aureus SCV CF1D-S; test: MIC, microdilution in BHI 48 h; type: cell-based, Staphylococcus aureus; conditions: CF1D-S, SCV
[4] = system: S. aureus Newbould (normal strain); test: MIC, microdilution in BHI 48 h; type: cell-based, Staphylococcus aureus; conditions: Newbould, normal strain
[5] = system: S. aureus CF07-L (normal strain); test: MIC, microdilution in BHI 48 h (Examples 1, 3); type: cell-based, Staphylococcus aureus
[6] = system: S. haemolyticus sh022; test: MIC, microdilution, with or without tomatidine; conditions: S. haemolyticus sh022
[7] = system: S. aureus MA078038; test: MIC, microdilution in CAMHB 24 h; type: cell-based, Staphylococcus aureus
[8] = system: S. aureus Sa220c; test: MIC, microdilution in CAMHB 24 h; type: cell-based, Staphylococcus aureus; conditions: Sa220c
[9] = system: S. aureus CF1A-L (normal strain); test: MIC, microdilution in BHI 48 h; type: cell-based, Staphylococcus aureus; conditions: CF1A-L, normal strain
[10] = system: S. aureus SCV CF07-S; test: MIC, microdilution in BHI 48 h (Examples 1, 3); type: cell-based, Staphylococcus aureus
[11] = system: S. hominis sho23; test: MIC, microdilution, with or without tomatidine; conditions: S. hominis sho23
[12] = system: normal strain CF07-L; test: Broth growth with gentamicin or tomatidine, visually evaluated (FIG. 5A); conditions: gentamicin at 4 μg/ml or tomatidine at 0.12 μg/ml alone, 48 h
[13] = system: S. aureus CF07-L; test: MIC, microdilution in CAMHB 24 h; type: cell-based, Staphylococcus aureus; conditions: CF07-L
[14] = system: S. aureus CF4B-L; test: MIC, microdilution in CAMHB 24 h; type: cell-based, Staphylococcus aureus; conditions: CF4B-L
[15] = system: S. hominis ssp008c; test: MIC, microdilution, with or without tomatidine; conditions: S. hominis ssp008c
[16] = system: S. aureus SCV NewbouldΔhemB; test: MIC, microdilution in BHI 48 h; type: cell-based, Staphylococcus aureus; conditions: NewbouldΔhemB, SCV
[17] = system: all tested S. aureus strains; test: Average potentiation of aminoglycoside MIC by tomatidine (FIGS. 6, 7); type: cell-based, Staphylococcus aureus; conditions: tomatidine at 8 μg/ml
[18] = system: S. aureus ATCC 29213; test: MIC, microdilution in BHI 48 h (Examples 1, 3); type: cell-based, Staphylococcus aureus
[19] = system: S. epidermidis ATCC 35984; test: MIC, microdilution, with or without tomatidine; conditions: S. epidermidis ATCC 35984
[20] = system: S. haemolyticus sh032; test: MIC, microdilution, with or without tomatidine; conditions: S. haemolyticus sh032

gentamicin
Fold (−TO/+TO) ([1]; 8 μg/ml of tomatidine): 2 fold
MIC +TO ([1]; 8 μg/ml of tomatidine): 0.06 µg/mL
MIC −TO ([1]; absence of tomatidine): 0.12 µg/mL
Fold (−TO/+TO) ([2]; 8 μg/ml of tomatidine): 4 fold
MIC +TO ([2]; 8 μg/ml of tomatidine): 16 to 32 µg/mL
MIC ([2]; Human (HA), MRSA): 64-128 (R) μg/ml
MIC −TO ([2]; absence of tomatidine): 64 to 128 µg/mL
MIC [3]: 8 µg/mL
MIC [4]: 0.5-1^ μg/ml
MIC ([5]; CF07-L + HQNO at 20 μg/ml): 4 µg/mL
MIC ([5]; CF07-L, normal strain): 1 to 2 µg/mL
MIC ([5]; CF07-L, without HQNO): 1 to 2 µg/mL
Fold (−TO/+TO) ([6]; 8 μg/ml of tomatidine): 4 fold
MIC +TO ([6]; 8 μg/ml of tomatidine): 4 µg/mL
MIC −TO ([6]; absence of tomatidine): 16 µg/mL
MIC +TO ([7]; MA078038, aph(3′)-IIIa, 8 μg/ml of tomatidine): 0.06 µg/mL
MIC −TO ([7]; MA078038, aph(3′)-IIIa, absence of tomatidine): 0.25 to 0.5 µg/mL
Fold (−TO/+TO) ([7]; MA078038, 8 μg/ml of tomatidine): 4-8 fold
MIC ([7]; MA078038, Human (CA), MRSA): 0.25 to 0.5 µg/mL
Fold (−TO/+TO) ([8]; 8 μg/ml of tomatidine): 4-8 fold
MIC +TO ([8]; 8 μg/ml of tomatidine): 0.06 to 0.12 µg/mL
MIC ([8]; Human (SSTI), MRSA): 0.5 µg/mL
MIC −TO ([8]; absence of tomatidine): 0.5 µg/mL
MIC [9]: 1 to 2 µg/mL
MIC ([10]; CF07-S + HQNO at 20 μg/ml): 4 to 8 µg/mL
MIC ([10]; CF07-S, SCV): 8 µg/mL
MIC ([10]; CF07-S, without HQNO): 8 µg/mL
Fold (−TO/+TO) ([11]; 8 μg/ml of tomatidine): 2 fold
MIC +TO ([11]; 8 μg/ml of tomatidine): 0.06 µg/mL
MIC −TO ([11]; absence of tomatidine): 0.12 µg/mL
growth, visually evaluated [12]: inhibits the growth
Fold (−TO/+TO) ([13]; 8 μg/ml of tomatidine): 4-8 fold
MIC +TO ([13]; 8 μg/ml of tomatidine): 0.06 to 0.25 µg/mL
MIC ([13]; Human (CF lungs)): 0.5 to 1 µg/mL
MIC −TO ([13]; absence of tomatidine): 0.5 to 1 µg/mL
Fold (−TO/+TO) ([14]; 8 μg/ml of tomatidine): 4-8 fold
MIC +TO ([14]; 8 μg/ml of tomatidine): 0.06 to 0.12 µg/mL
MIC ([14]; Human (CF lungs)): 0.5 µg/mL
MIC −TO ([14]; absence of tomatidine): 0.5 µg/mL
Fold (−TO/+TO) ([15]; 8 μg/ml of tomatidine): 4 fold
MIC +TO ([15]; 8 μg/ml of tomatidine): 2 µg/mL
MIC −TO ([15]; absence of tomatidine): 8 µg/mL
MIC [16]: 4 to 8 µg/mL
average increase of antibacterial activity [17]: 8±3 fold
MIC ([18]; ATCC 29213 + HQNO at 20 μg/ml): 4 µg/mL
MIC ([18]; ATCC 29213, without HQNO): 1 µg/mL
MIC in presence of CCCP ([18]; ATCC 29213, 1 μg/ml CCCP): 4 to 8 µg/mL
MIC ([18]; ATCC 29213 in BHI): 1 µg/mL
MIC ([18]; ATCC 29213 in MHBCA): 0.5-1^ μg/ml
Fold (−TO/+TO) ([19]; 8 μg/ml of tomatidine): 4 fold
MIC +TO ([19]; 8 μg/ml of tomatidine): 8 µg/mL
MIC −TO ([19]; absence of tomatidine): 32 µg/mL
Fold (−TO/+TO) ([20]; 8 μg/ml of tomatidine): 8 fold
MIC +TO ([20]; 8 μg/ml of tomatidine): 8 µg/mL
MIC −TO ([20]; absence of tomatidine): 64 µg/mL
